For this test, the target named is PDEδ farnesyl pocket (Homo sapiens, UniProt O43924). The test is described as follows: Displacement titrations of labeled probe (fluorescence polarization) for the determination of KD values. In kind it is binding. An excerpt: The resulting solution was serially diluted, holding the concentrations of S54, PDEδ and DMSO constant. The sealed plates were shaken overnight at room temperature and centrifuged at the beginning of the next day. […] For the fitting of the data to a competition model the exact mathematical solution derived from the law of mass action was used as described by Roehrl et al.^3 Fraction bound data was fit using KD2 as the only fitting parameter and total ligand concentration as independent variable (OriginPro8.6, function codec from origin). [formula] • FSB: Fraction bound of fluorescent probe • KD1: Binding constant of fluorescent Probe determined from direct titration • KD2: Fitting parameter (Binding constant of unlabeld competitor) • LST: Total concentration of unlabeld small molecule competitor • RT: Total protein concentration
Sequence of PDEδ farnesyl pocket (O43924 whole entry): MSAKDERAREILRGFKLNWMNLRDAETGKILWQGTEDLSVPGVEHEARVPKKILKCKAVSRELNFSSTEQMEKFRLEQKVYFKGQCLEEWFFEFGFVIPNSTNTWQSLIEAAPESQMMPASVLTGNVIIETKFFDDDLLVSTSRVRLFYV
For the fitting of data to a competition model with cooperative binding of two benzimidazole fragments the program Scientist 3.0 was used. An experimental system was defined as a series of partial equations including the equilibrium relationships between the various species. Anisotropy data was converted to fraction bound and fitting was carried out in anlogy to a previously described set of equilibrium relationships by Goody and coworkers.^4. KD1 = ([A][PDEDf])/([APDED]) [formula] KD2 = ([L^2][PDEDf])/([LPDED]) [formula] • A:equilibrium conentration of free fluorophore • L: equilibrium concentration of free ligand • APDED: equilibrium concentration of bound fluorescent probe • LPDED: equilibrium conentration of bound small molecule • PDEDf: equilibrium conentration of free protein This model was used (together with equations describing the mass balance) to numerically simulate the FSB of fluorophore and compared with the experimental data.
Scientist input file: • // Micromath Scientist Model File • IndVars: LST • DepVars: A,L,APDED,LPDED,PDEDf,FSB • Params: ATOT,PDED,KD1,KD2 • LPDED= L^2*PDEDf/KD2 • APDED=A*PDEDf/KD1 • ATOT=A+APDED • LST=L+LPDED • PDED=PDEDf+APDED+LPDED • 0<A<ATOT • 0<L<LST • 0<PDEDf<PDED • FSB=1-A/ATOT • LST=0
The activity of the compounds was classified according to their Kd for the PDEδ farnesyl pocket into the following ranges: […]
Background: Polarisation of emitted light reports the rotation of a fluorescent probe.

Where [1] appears, read: Kd for the PDEδ farnesyl pocket, read-out: KD.

pKd: −log10 of the molar value. Like-named read-outs stand apart in the source and are kept apart here.

As usually defined, the pKd is −log10 of the Kd, conventionally taken in molar units.

In the case of `C=C(C)Cn1c(CC(C)C)nc2ccccc21` [Compound 31], the pKd under setting [1] was 6.00 to 7.00.
Consider `C=CCOc1ccc(-c2nc3ccccc3n2Cc2ccc(F)cc2)cc1` [Compound S06, 2-(4-(Allyloxy)phenyl)-1-(4-fluorobenzyl)-1H-benzo[d]imidazole], for which the negative logarithm of the Kd (pKd) under setting [1] is 6.00 to 7.00.
For `C=CCOc1ccc(-c2nc3ccccc3n2Cc2ccccc2)cc1` [Compound S02, 2-(4-(Allyloxy)phenyl)-1-benzyl-1H-benzo[d]imidazole], the negative logarithm of the Kd (pKd) under setting [1] was under 6.00.
With `C#CCn1c(-c2ccccc2Br)nc2ccccc21` [Compound 38], the pKd under setting [1] is under 6.00.
Regarding `Cc1ccc(OCc2nc3ccccc3n2C(C)c2ccccc2)cc1` (stereo not drawn) [Compound 16], under setting [1], the negative logarithm of the Kd (pKd) is 6.00 to 7.00.
Turning to `Cc1ccccc1Cn1c(CC(C)(C)C)nc2ccccc21` [Compound 34], the pKd under setting [1] was 7.00 to 7.60.
Still for that read-out and setting: under `CC1CCCN(C(=O)C2CCN(c3nc4ccccc4n3Cc3cccc(F)c3)CC2)C1` (stereo not drawn) [Compound 23] stands under 6.00; under `CN(CCCNC(=O)C1CCN(c2nc3ccccc3n2Cc2ccc(F)cc2)CC1)C1CCCCC1` [Compound 21], 6.00 to 7.00; under `C=CCOc1ccc(-c2nc3ccccc3n2Cc2ccccn2)cc1` [Compound S03, 2-(4-(Allyloxy)phenyl)-1-(pyridin-2-ylmethyl)-1H-benzo[d]imidazole], under 6.00.
Consider `COc1cccc(CNC(=O)C2CCN(c3nc4ccccc4n3Cc3ccccc3C)CC2)c1` [Compound 19], for which the pKd under setting [1] is 6.00 to 7.00.
For the compound `c1ccc(CCn2c(-c3ccco3)nc3ccccc32)cc1` [Compound 26], the pKd under setting [1] was 6.00 to 7.00.
The same measure, in the same setting: under `Ic1ccc(Cn2c(-c3ccc(I)o3)nc3ccccc32)o1` [Compound 48] stands 7.00 to 7.60.
Consider `C=CCOc1ccc(-c2nc3ccccc3n2Cc2ccccc2C)cc1` [Compound S04, 2-(4-(Allyloxy)phenyl)-1-(2-methylbenzyl)-1H-benzo[d]imidazole], for which the pKd under setting [1] is under 6.00.
Same read-out and setting: under `Cc1ccccc1Cn1c(Cc2ccccc2)nc2ccccc21` [Compound 28] stands under 6.00.
Same read-out and setting: under `CC(C)(C)OC(=O)N1CCC(C(COc2ccc(-c3nc4ccccc4n3Cc3ccccc3)cc2)n2c(-c3ccccc3)nc3ccccc32)CC1` (stereo not drawn) [Compound 08, tert-Butyl-4-(2-(4-(1-benzyl-1H-benzo[d]imidazol-2-yl)phenoxy)-1-(2-phenyl-1H-benzo[d]imidazol-1-yl)ethyl)piperidine-1-carboxylate] stands under 6.00.
The same measure, in the same setting: in the case of `CCOc1ccc(CNC(=O)C2CCN(c3nc4ccccc4n3Cc3ccc(F)cc3)CC2)cc1` [Compound 20] it was 7.00 to 7.60.
For the compound `Cc1cccc(-c2nc3ccccc3n2CCc2ccccc2)c1` [Compound 36], the negative-log Kd (pKd) under setting [1] is under 6.00.
For `Cc1ccc(-c2nc3ccccc3n2Cc2ccc(F)cc2)o1` [Compound 42], the negative-log Kd (pKd) under setting [1] was 6.00 to 7.00.
The same measure, in the same setting: under `Oc1ccc(-c2nc3ccccc3n2Cc2ccccn2)cc1` [Compound S08, 4-(1-(Pyridin-2-ylmethyl)-1H-benzo[d]imidazol-2-yl)phenol] stands under 6.00; under `c1ccc(C2Nc3ccccc3-c3nc4ccccc4n32)nc1` (stereo not drawn) [Compound 02, 6-Pyiridyl-5,6-dihydrobenzo[4-5]imidazo[1,2-c]quinazoline], under 6.00.
For the compound `CC(C)Cc1nc2ccccc2n1Cc1c(F)cccc1Cl` [Compound 37], the pKd under setting [1] is 7.00 to 7.60.
On the same count and under the same terms, in the case of `CCN(CCCNC(=O)C1CCN(c2nc3ccccc3n2Cc2ccc(C)cc2)CC1)c1cccc(C)c1` [Compound 24] it was under 6.00.
On the same count and under the same terms, in the case of `O=C(c1ccccc1Cl)N1CCN(c2nc3ccccc3n2Cc2ccccc2)CC1` [Compound 46] it was 6.00 to 7.00; in that of `Cc1ccc(C)c(Cn2c(CCNC(=O)CCCC(C)O)nc3ccccc32)c1` (stereo not drawn) [Compound 47], under 6.00.
Still for that read-out and setting: under `COc1ccccc1OCc1nc2ccccc2n1Cc1ccccc1Cl` [Compound 13] stands 6.00 to 7.00.
As for `O=C(NCCCN1CCN(c2ccc(O)cc2)CC1)C1CCN(c2nc3ccccc3n2Cc2cccc(F)c2)CC1` [Compound 18], the negative logarithm of the Kd (pKd) (read-out: KD) is 6.00 to 7.00.
For the compound `COc1cc(OC)cc(C(=O)N2CCN(c3nc4ccccc4n3Cc3ccccc3)CC2)c1` [Compound 45], under setting [1], the pKd was 6.00 to 7.00.
Turning to `COc1ccc(-c2nc3ccccc3n2Cc2c(F)cccc2Cl)cc1` [Compound 50], the pKd under setting [1] was 6.00 to 7.00.
For the compound `Oc1ccc(Cn2c(-c3ccc(O)cc3)nc3ccccc32)cc1` [Compound 15], the pKd was 7.00 to 7.60.
In the case of `CCC(CC)c1nc2ccccc2n1Cc1ccccc1` [Compound 30], the pKd under setting [1] is under 6.00.
On the same count and under the same terms, under `Oc1ccc(-c2nc3ccccc3n2Cc2ccc(F)cc2)cc1` [Compound S09, 4-(1-(4-Fluorobenzyl)-1H-benzo[d]imidazol-2-yl)phenol] stands 6.00 to 7.00; under `C=C(C)Cn1c(-c2ccc(N(C)C)cc2)nc2ccccc21` [Compound 14], 6.00 to 7.00.
Same read-out and setting: in the case of `O=C(NCCN1CCCC1)C1CCN(c2nc3ccccc3n2Cc2ccccc2F)CC1` [Compound 17] it was 6.00 to 7.00; in that of `CC(C)Cc1nc2ccccc2n1Cc1ccccc1` [Compound 32], 6.00 to 7.00; in that of `Fc1ccc(Cn2c(-c3cccc(Br)c3)nc3ccccc32)cc1` [Compound 43], under 6.00.
In turn, `c1ccc(Cn2c(CN3CCCCCC3)nc3ccccc32)cc1` [Compound 40] showed a negative-log Kd (pKd) of 6.00 to 7.00.
For `CCCC(O)c1nc2ccccc2n1Cc1c(F)cccc1Cl` (stereo not drawn) [Compound 41], the pKd under setting [1] was 6.00 to 7.00.
For the compound `Oc1ccc(-c2nc3ccccc3n2Cc2ccccc2)cc1` [Compound S07, 4-(1-Benzyl-1H-benzo[d]imidazol-2-yl)phenol], under setting [1], the negative-log Kd (pKd) is 7.00 to 7.60.
Same read-out and setting: in the case of `OCC(C1CCCCC1)n1c(-c2ccccc2)nc2ccccc21` (stereo not drawn) [Compound S16, 2-Cyclohexyl-2-(2-phenyl-1H-benzo[d]imidazol-1-yl)ethanol] it was under 6.00.
With `COc1ccc(Cc2nc3ccccc3n2Cc2ccccc2)cc1` [Compound 27], the pKd is 6.00 to 7.00.
Consider `Clc1cccc(Cn2c(-c3ccco3)nc3ccccc32)c1` [Compound 39], for which the pKd under setting [1] was 6.00 to 7.00.
On the same count and under the same terms, in the case of `Cc1ccc(NC(=O)N2CCN(c3nc4ccccc4n3Cc3ccccc3)CC2)c(C)c1` [Compound 44] it was 6.00 to 7.00; in that of `Cc1ccccc1Cn1c(N2CCC(C(=O)NCCCN3CC(C)CC(C)C3)CC2)nc2ccccc21` (stereo not drawn) [Compound 25], 6.00 to 7.00.
On the same count and under the same terms, under `O=C(NCc1ccccc1)C(C1CCCCC1)n1c(-c2ccccc2)nc2ccccc21` (stereo not drawn) [Compound S12, N-Benzyl-2-cyclohexyl-2-(2-phenyl-1H-benzo[d]imidazol-1-yl)acetamide] stands 6.00 to 7.00; under `COc1cccc(C(=O)C=Cc2nc3ccccc3n2Cc2ccccc2)c1` [Compound 49], under 6.00.
The same measure, in the same setting: in the case of `c1ccc(Cn2c(-c3ccc(OCCn4c(-c5ccccc5)nc5ccccc54)cc3)nc3ccccc32)cc1` [Compound 06, 1-Benzyl-2-(4-(2-(2-phenyl-1H-benzo[d]imidazol-1-yl)ethoxy)phenyl)-1H-benzo[d]imidazole] it was 6.00 to 7.00.
For the compound `CCCCc1nc2ccccc2n1Cc1ccc(Cl)cc1` [Compound 29], the pKd under setting [1] is 6.00 to 7.00.
As to `Cc1ccccc1Cn1c(N2CCC(C(=O)O)CC2)nc2ccccc21` [Compound 22], the pKd under setting [1] was under 6.00.
Still for that read-out and setting: in the case of `CCc1nc2ccccc2n1Cc1ccccc1F` [Compound 33] it was 6.00 to 7.00.
Same read-out and setting: in the case of `O=C(NCCO)C(c1ccccc1)n1c(-c2ccccc2)nc2ccccc21` (stereo not drawn) [Compound 51] it was under 6.00.
Take `CC(C)CCn1c(CC(C)(C)C)nc2ccccc21` [Compound 35]: the pKd is 6.00 to 7.00.
